Measurements reported in ChEMBL document CHEMBL1153966, “Synthesis, cytotoxicity, and haemolytic activity of chacotrioside lupane-type neosaponins and their germanicane-type rearrangement products” (Bioorg Med Chem Lett, 2009).

Legend:
A549 = assay: Cytotoxicity against human A549 cells by resazurin reduction test; type: functional, cell-based
[1] = Cytotoxicity against human WS1 cells by resazurin reduction test; type: cell-based
PC-3 = assay: Cytotoxicity against human PC3 cells by resazurin reduction test; type: functional, cell-based
[2] = Toxicity in sheep erythrocytes assessed as induction of hemolysis; type: cell-based, Ovis aries, Erythrocyte; settings: read-out: HD50 (the source's name)
DLD-1 = assay: Cytotoxicity against human DLD1 cells by resazurin reduction test; type: functional, cell-based
MCF7 = assay: Cytotoxicity against human MCF7 cells by resazurin reduction test; type: functional, cell-based

| Structure (SMILES) | IC50 (A549) | IC50 [1] | IC50 (PC-3) | HC50 [2] | IC50 (DLD-1) | IC50 (MCF7) |
| --- | --- | --- | --- | --- | --- | --- |
| C[C@@H]1O[C@@H](O[C@H]2[C@H](O[C@H]3CC[C@]4(C)[C@H]5CC[C@@H]6[C@H]7[C@H]8OC[C@@]7(CCC8(C)C)CC[C@@]6(C)[C@]5(C)CC[C@H]4C3(C)C)O[C@H](CO)[C@@H](O[C@@H]3O[C@@H](C)[C@H](O)[C@@H](O)[C@H]3O)[C@@H]2O)[C@H](O)[C@H](O)[C@H]1O | 14 µM | 9 µM | 13 µM | 90 µM | 13 µM | 15 µM |
| C[C@@H]1O[C@@H](O[C@H]2[C@H](O[C@H]3CC[C@]4(C)[C@H]5CC[C@@H]6[C@H]7[C@H]8OC(=O)[C@@]7(CCC8(C)C)CC[C@@]6(C)[C@]5(C)CC[C@H]4C3(C)C)O[C@H](CO)[C@@H](O[C@@H]3O[C@@H](C)[C@H](O)[C@@H](O)[C@H]3O)[C@@H]2O)[C@H](O)[C@H](O)[C@H]1O | 13 µM | 3.8 µM | 10 µM | 8 µM | 14 µM | 18 µM |
| C=C(C)[C@@H]1CC[C@]2(C)CC[C@]3(C)[C@H](CC[C@@H]4[C@@]5(C)CC[C@H](O[C@@H]6O[C@H](CO)[C@@H](O[C@@H]7O[C@@H](C)[C@H](O)[C@@H](O)[C@H]7O)[C@H](O)[C@H]6O[C@@H]6O[C@@H](C)[C@H](O)[C@@H](O)[C@H]6O)C(C)(C)[C@@H]5CC[C@]43C)[C@@H]12 | > 50 µM | > 50 µM | > 50 µM | 30 µM | > 50 µM | > 50 µM |
| C=C(C)[C@@H]1CC[C@]2(CO)CC[C@]3(C)[C@H](CC[C@@H]4[C@@]5(C)CC[C@H](O[C@@H]6O[C@H](CO)[C@@H](O[C@@H]7O[C@@H](C)[C@H](O)[C@@H](O)[C@H]7O)[C@H](O)[C@H]6O[C@@H]6O[C@@H](C)[C@H](O)[C@@H](O)[C@H]6O)C(C)(C)[C@@H]5CC[C@]43C)[C@@H]12 | > 50 µM | > 50 µM | > 50 µM | > 100 µM | > 50 µM | > 50 µM |
| C=C(C)[C@@H]1CC[C@]2(C(=O)O)CC[C@]3(C)[C@H](CC[C@@H]4[C@@]5(C)CC[C@H](O[C@@H]6O[C@H](CO)[C@@H](O[C@@H]7O[C@@H](C)[C@H](O)[C@@H](O)[C@H]7O)[C@H](O)[C@H]6O[C@@H]6O[C@@H](C)[C@H](O)[C@@H](O)[C@H]6O)C(C)(C)[C@@H]5CC[C@]43C)[C@@H]12 | > 50 µM | > 50 µM | > 50 µM | > 100 µM | > 50 µM | > 50 µM |
| CC1(C)CC[C@]23CC[C@]4(C)[C@H](CC[C@@H]5[C@@]6(C)CC[C@H](O)C(C)(C)[C@@H]6CC[C@]54C)[C@H]2[C@H]1OC3=O | > 50 µM | > 50 µM | > 50 µM | > 100 µM | > 50 µM | > 50 µM |
| CC1(C)CC[C@]23CC[C@]4(C)[C@H](CC[C@@H]5[C@@]6(C)CC[C@H](O)C(C)(C)[C@@H]6CC[C@]54C)[C@H]2[C@H]1OC3 [ALLOBETULIN] | > 50 µM | > 50 µM | > 50 µM | > 100 µM | > 50 µM | > 50 µM |
| C=C(C)[C@@H]1CC[C@]2(C(=O)O)CC[C@]3(C)[C@H](CC[C@@H]4[C@@]5(C)CC[C@H](O)C(C)(C)[C@@H]5CC[C@]43C)[C@@H]12 [BETULINIC ACID] |  | 12 µM |  | > 100 µM |  |  |
| C=C(C)[C@@H]1CC[C@]2(CO)CC[C@]3(C)[C@H](CC[C@@H]4[C@@]5(C)CC[C@H](O)C(C)(C)[C@@H]5CC[C@]43C)[C@@H]12 [BETULIN] |  | 3.6 µM |  | > 100 µM |  |  |
| C=C(C)[C@@H]1CC[C@]2(C)CC[C@]3(C)[C@H](CC[C@@H]4[C@@]5(C)CC[C@H](O)C(C)(C)[C@@H]5CC[C@]43C)[C@@H]12 [LUPEOL] | > 50 µM | > 50 µM | > 50 µM | > 100 µM | > 50 µM | > 50 µM |
